# Measurements as given in patent US20110251379A1, “COMPOUNDS USEFUL FOR TREATING NEURODEGENERATIVE DISORDERS” (Satori Pharmaceuticals, Inc., priority 2010, published 2011).
# Read-outs that look alike come from different tables or passages of the source.
# Tests used:
# Format in all cases: cell-based
# Aβ-38 = assay: MSD Human (6E10) Ab 3-PLEX elisa, conditioned media of 2B7 cells: Aβ-38; details: Homo sapiens; for inhibition at 100 µM: Aβ-38, 100 μM; for inhibition at 20 µM: Aβ-38, 20 μM; for IC50: Aβ-38 (superscript a)
# Summary of the method: (§1)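 Read-out is MSD electrochemiluminescence of secreted Aβ peptides in 2B7 conditioned media after 5 hours of compound exposure at 37° C in 1% DMSO. Concentrations come from seven-point standard curves, and IC50 values from 4-parameter fits of percent vehicle.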
# Aβ-40 = assay: MSD Human (6E10) Ab 3-PLEX elisa, conditioned media of 2B7 cells: Aβ-40; details: for inhibition at 100 µM / inhibition at 20 µM / IC50: Homo sapiens; for inhibition at 20 µM: Aβ-40, 20 μM; for IC50: Aβ-40 (superscript b)
# Summary of the method: as §1
# Aβ-42 = assay: MSD Human (6E10) Ab 3-PLEX elisa, conditioned media of 2B7 cells: Aβ-42; details: Homo sapiens; for IC50: Aβ-42 (superscript c); for inhibition at 20 µM: Aβ-42, 20 μM
# Summary of the method: as §1
SMILES,IC50 (Aβ-42; read-out: IC50 range) [nM],inhibition at 20 µM (Aβ-38) [%],inhibition at 20 µM (Aβ-40) [%],IC50 (Aβ-42; read-out: 50% reduction value) [nM],inhibition at 20 µM (Aβ-42) [%],further results
C[C@@H]1CC(CN2CCC[C@H]2C(=O)O)OC2[C@H]1[C@@]1(C)CC[C@@]34C[C@@]35CC[C@H](O[C@H]3CN(C(=O)CC6CC6)CCO3)C(C)(C)[C@@H]5CCC4[C@]1(C)[C@H]2O (stereo partly drawn),> 10000,–,–,–,–,"inhibition at 100 µM (Aβ-38): 25 to 75%; inhibition at 100 µM (Aβ-40; Aβ-40, 100 μM): 25 to 75%"
CC(=O)NCCC1C[C@@H](C)[C@H]2C(O1)[C@H](O)[C@@]1(C)C3CC[C@H]4C(C)(C)[C@@H](O)CC[C@@]45C[C@@]35CC[C@]21C (stereo partly drawn),–,25 to 75,< 25,1000 to 10000,–,–
COC(=O)OCC1C[C@@H](C)[C@H]2C(O1)[C@H](O)[C@@]1(C)C3CC[C@H]4C(C)(C)[C@@H](O)CC[C@@]45C[C@@]35CC[C@]21C (stereo partly drawn),–,25 to 75,25 to 75,–,25 to 75,–
C[C@@H]1CC(COC(=O)C2CCOCC2)OC2[C@H]1[C@@]1(C)CC[C@@]34C[C@@]35CC[C@H](O[C@H]3CN(C6COC6)CCO3)C(C)(C)[C@@H]5CCC4[C@]1(C)[C@H]2O (stereo partly drawn),–,25 to 75,25 to 75,–,25 to 75,–
C[C@@H]1C[C@](C)(CO)OC2[C@H]1[C@@]1(C)CC[C@@]34C[C@@]35CC[C@H](O)C(C)(C)[C@@H]5CCC4[C@]1(C)[C@H]2O (stereo partly drawn),–,25 to 75,< 25,–,< 25,–
COC(=O)O[C@H](C(C)C)C1C[C@@H](C)[C@H]2C(O1)[C@H](O)[C@@]1(C)C3CC[C@H]4C(C)(C)[C@@H](O)CC[C@@]45C[C@@]35CC[C@]21C (stereo partly drawn),–,25 to 75,25 to 75,–,25 to 75,–
CCOC(=O)CO[C@@H]([C@H]1C[C@@H](C)[C@H]2[C@H](O1)[C@H](O)[C@@]1(C)C3CC[C@H]4C(C)(C)[C@@H](O[C@H]5CN(C6COC6)CCO5)CC[C@@]45C[C@@]35CC[C@]21C)C(C)(C)O (stereo partly drawn),–,25 to 75,–,–,25 to 75,IC50 (Aβ-40; read-out: 50% reduction value): > 10000 nM
CNC(=O)O[C@@H]([C@H]1C[C@@H](C)[C@H]2[C@H](O1)[C@H](O)[C@@]1(C)C3CC[C@H]4C(C)(C)[C@@H](O)CC[C@@]45C[C@@]35CC[C@]21C)C(C)(C)O (stereo partly drawn),–,25 to 75,25 to 75,–,25 to 75,–
C[C@@H]1CC(COC(=O)C2CCC2)OC2[C@H]1[C@@]1(C)CC[C@@]34C[C@@]35CC[C@H](O[C@H]3CN(C6COC6)CCO3)C(C)(C)[C@@H]5CCC4[C@]1(C)[C@H]2O (stereo partly drawn),–,25 to 75,< 25,–,< 25,–
CC(=O)OC(C)(C)C1C[C@@H](C)[C@H]2C(O1)[C@H](O)[C@@]1(C)C3CC[C@H]4C(C)(C)C(OC(=O)N5CCOCC5)CC[C@@]45C[C@@]35CC[C@]21C (stereo partly drawn),–,25 to 75,< 25,–,< 25,–
C[C@@H]1CC([C@H](Oc2ncccn2)C(C)(C)O)OC2C1[C@@]1(C)CC[C@@]34C[C@@]35CCC(O)C(C)(C)[C@@H]5CCC4[C@]1(C)[C@H]2O (stereo partly drawn),–,25 to 75,25 to 75,–,25 to 75,–
C[C@@H]1CC([C@H](Oc2ncccn2)C(C)(C)O)OC2C1[C@@]1(C)CC[C@@]34C[C@@]35CCC(OC(=O)N3CCOCC3)C(C)(C)[C@@H]5CCC4[C@]1(C)[C@H]2O (stereo partly drawn),–,25 to 75,–,> 10000,–,IC50 (Aβ-40; read-out: IC50 range): > 10000 nM
COCC1C[C@@H](C)[C@H]2C(O1)[C@H](O)[C@@]1(C)[C@@H]3CC[C@H]4C(C)(C)C(O[C@H]5CN(C6COC6)CCO5)CC[C@@]45C[C@@]35CC[C@]21C (stereo partly drawn),–,< 25,< 25,–,< 25,–
C[C@@H]1CC(CN(C)[C@@H](C)C(=O)O)OC2[C@H]1[C@@]1(C)CC[C@@]34C[C@@]35CC[C@H](O[C@H]3CN(C(=O)CC6CC6)CCO3)C(C)(C)[C@@H]5CCC4[C@]1(C)[C@H]2O (stereo partly drawn) [drawing 1142],–,–,–,–,–,"inhibition at 100 µM (Aβ-38): 25 to 75%; % Inh. (range) (Aβ-40; Aβ-40, 100 μM, 100 µM): E^a (100 μM) E^b (100 μM) E^c (100 μM) (% inhibition of 25-75%); inhibition at 100 µM (Aβ-42; Aβ-42, 100 μM): 25 to 75%"
C[C@@H]1CC(CN(C)[C@@H](C)C(=O)O)OC2[C@H]1[C@@]1(C)CC[C@@]34C[C@@]35CC[C@H](O[C@H]3CN(C(=O)CC6CC6)CCO3)C(C)(C)[C@@H]5CCC4[C@]1(C)[C@H]2O (stereo partly drawn) [drawing 1155],1000 to 10000,–,–,–,–,"IC50 (Aβ-38; read-out: IC50 range): < 1000 nM; inhibition at 100 µM (Aβ-40; Aβ-40, 100 μM): 25 to 75%"
CC(=O)O[C@@H]([C@H]1C[C@@H](C)C2C(O1)[C@H](O)[C@@]1(C)[C@@H]3CC[C@H]4C(C)(C)[C@@H](O[C@@H]5OC[C@@H](O)[C@H](O)[C@H]5O)CC[C@@]45C[C@@]35CC[C@]21C)C(C)(C)O (stereo partly drawn) [drawing 1160],< 1000,–,–,< 1000,–,IC50 (Aβ-38; read-out: IC50 range): < 1000 nM; IC50 (Aβ-40; read-out: IC50 range): 1000 to 10000 nM
CC(=O)OCC1C[C@@H](C)C2C(O1)[C@H](O)[C@@]1(C)[C@@H]3CC[C@H]4C(C)(C)[C@@H](O)CC[C@@]45C[C@@]35CC[C@]21C (stereo partly drawn) [drawing 1161],–,25 to 75,25 to 75,–,25 to 75,–
CCC(=O)O[C@@H]([C@H]1C[C@@H](C)C2C(O1)[C@H](O)[C@@]1(C)[C@@H]3CC[C@H]4C(C)(C)[C@@H](O)CC[C@@]45C[C@@]35CC[C@]21C)C(C)(C)O (stereo partly drawn) [drawing 1197],–,–,–,> 10000,–,IC50 (Aβ-38; read-out: 50% reduction value): > 10000 nM; IC50 (Aβ-40; read-out: 50% reduction value): > 10000 nM
CC(=O)O[C@@H]([C@H]1C[C@@H](C)C2C(O1)[C@H](O)[C@@]1(C)[C@@H]3CC[C@H]4C(C)(C)[C@@H](OC5CN(CC(N)=O)CCO5)CC[C@@]45C[C@@]35CC[C@]21C)C(C)(C)O (stereo partly drawn) [drawing 1198],1000 to 10000,–,25 to 75,< 1000,–,IC50 (Aβ-38; read-out: 50% reduction value): < 1000 nM
CC(=O)O[C@@H]([C@H]1C[C@@H](C)C2C(O1)[C@H](O)[C@@]1(C)[C@@H]3CC[C@H]4C(C)(C)[C@@H](OC5CN(CC(=O)N(C)C)CCO5)CC[C@@]45C[C@@]35CC[C@]21C)C(C)(C)O (stereo partly drawn) [drawing 1199],< 1000,–,–,< 1000,–,IC50 (Aβ-38; read-out: 50% reduction value): < 1000 nM; IC50 (Aβ-38; read-out: IC50 range): < 1000 nM; IC50 (Aβ-40; read-out: 50% reduction value): 1000 to 10000 nM
CC(=O)O[C@@H]([C@H]1C[C@@H](C)C2C(O1)[C@H](O)[C@@]1(C)[C@@H]3CC[C@H]4C(C)(C)[C@@H](OC(=O)c5cccnc5)CC[C@@]45C[C@@]35CC[C@]21C)C(C)(C)O (stereo partly drawn) [drawing 1200],< 1000,–,–,< 1000,–,IC50 (Aβ-38; read-out: 50% reduction value): < 1000 nM; IC50 (Aβ-38; read-out: IC50 range): < 1000 nM; IC50 (Aβ-40; read-out: 50% reduction value): > 10000 nM
CC(=O)O[C@@H]([C@H]1C[C@@H](C)[C@H]2[C@H](O1)[C@H](O)[C@@]1(C)[C@@H]3CC[C@H]4C(C)(C)C(OC(N)=O)CC[C@@]45C[C@@]35CC[C@]21C)C(C)(C)O (stereo partly drawn) [drawing 1201],< 1000,–,25 to 75,< 1000,–,IC50 (Aβ-38; read-out: 50% reduction value): < 1000 nM; IC50 (Aβ-38; read-out: IC50 range): < 1000 nM
CC(=O)O[C@@H]([C@H]1C[C@@H](C)[C@H]2[C@H](O1)C(=O)[C@@]1(C)[C@@H]3CC[C@H]4C(C)(C)[C@@H](O[C@H]5CN(CC(N)=O)CCO5)CC[C@@]45C[C@@]35CC[C@]21C)C(C)(C)O [drawing 1202],–,–,–,–,25 to 75,IC50 (Aβ-38; read-out: 50% reduction value): < 1000 nM; IC50 (Aβ-38; read-out: IC50 range): < 1000 nM; IC50 (Aβ-40; read-out: 50% reduction value): < 1000 nM
